Reference: PubChem BioAssay AID1259407 (Chemical Carcinogenesis Research Information System (CCRIS), 2018)
Activity calls are given as the source filed them. How the calls were made is not given here.

Tested on: CCRIS mutagenicity, Ames/micronucleus/aberration tests
Experiment: CCRIS mutagenicity studies
[1] = Test System: AMES SALMONELLA TYPHIMURIUM, Strain/Indicator: TA98, Metabolic Activation: NONE, Method: PREINCUBATION
[2] = Test System: AMES SALMONELLA TYPHIMURIUM, Strain/Indicator: TA100, Metabolic Activation: HAMSTER, LIVER, S-9, AROCLOR 1254 (10%), Method: PREINCUBATION
[3] = Test System: AMES SALMONELLA TYPHIMURIUM, Strain/Indicator: TA100, Metabolic Activation: NONE, Method: PREINCUBATION
[4] = Test System: AMES SALMONELLA TYPHIMURIUM, Strain/Indicator: TA100, Metabolic Activation: NONE, Method: STANDARD PLATE
[5] = Test System: AMES SALMONELLA TYPHIMURIUM, Strain/Indicator: TA100, Metabolic Activation: RAT, LIVER, S-9, AROCLOR 1254 (10%), Method: PREINCUBATION
[6] = Test System: AMES SALMONELLA TYPHIMURIUM, Strain/Indicator: TA100, Metabolic Activation: S-9, Method: STANDARD PLATE
[7] = Test System: AMES SALMONELLA TYPHIMURIUM, Strain/Indicator: TA1535, Metabolic Activation: HAMSTER, LIVER, S-9, AROCLOR 1254 (10%), Method: PREINCUBATION
[8] = Test System: AMES SALMONELLA TYPHIMURIUM, Strain/Indicator: TA1535, Metabolic Activation: NONE, Method: PREINCUBATION
[9] = Test System: AMES SALMONELLA TYPHIMURIUM, Strain/Indicator: TA1535, Metabolic Activation: NONE, Method: STANDARD PLATE
[10] = Test System: AMES SALMONELLA TYPHIMURIUM, Strain/Indicator: TA1535, Metabolic Activation: RAT, LIVER, S-9, AROCLOR 1254 (10%), Method: PREINCUBATION
[11] = Test System: AMES SALMONELLA TYPHIMURIUM, Strain/Indicator: TA1535, Metabolic Activation: S-9, Method: STANDARD PLATE
[12] = Test System: AMES SALMONELLA TYPHIMURIUM, Strain/Indicator: TA1537, Metabolic Activation: NONE, Method: PREINCUBATION
[13] = Test System: AMES SALMONELLA TYPHIMURIUM, Strain/Indicator: TA98, Metabolic Activation: HAMSTER, LIVER, S-9, AROCLOR 1254 (30%), Method: PREINCUBATION
[14] = Test System: AMES SALMONELLA TYPHIMURIUM, Strain/Indicator: TA1537, Metabolic Activation: NONE, Method: STANDARD PLATE

SMILES | mutagenic call [1] | mutagenic call [2] | mutagenic call [3] | mutagenic call [4] | mutagenic call [5] | mutagenic call [6] | mutagenic call [7] | mutagenic call [8] | mutagenic call [9] | mutagenic call [10] | mutagenic call [11] | mutagenic call [12] | mutagenic call [13] | mutagenic call [14] | other results
CCOC(=O)c1ccccc1C(=O)OCC | inactive; negative | inactive; negative | inactive; negative | active; positive | inactive; negative | inactive; negative | inactive; negative | inactive; negative | active; positive | inactive; negative | inactive; negative | inactive; negative | – | – | mutagenic call (Test System: AMES SALMONELLA TYPHIMURIUM, Strain/Indicator: TA98, Metabolic Activation: HAMSTER, LIVER, S-9, AROCLOR 1254 (10%), Method: PREINCUBATION): inactive; negative; mutagenic call (Test System: AMES SALMONELLA TYPHIMURIUM, Strain/Indicator: TA98, Metabolic Activation: RAT, LIVER, S-9, AROCLOR 1254 (10%), Method: PREINCUBATION): inactive; negative; mutagenic call (Test System: AMES SALMONELLA TYPHIMURIUM, Strain/Indicator: TA1537, Metabolic Activation: HAMSTER, LIVER, S-9, AROCLOR 1254 (10%), Method: PREINCUBATION): inactive; negative; mutagenic call (Test System: AMES SALMONELLA TYPHIMURIUM, Strain/Indicator: TA1537, Metabolic Activation: RAT, LIVER, S-9, AROCLOR 1254 (10%), Method: PREINCUBATION): inactive; negative
Nc1cccc(O)c1 | inactive; negative | inactive; negative | inactive; negative | – | inactive; negative | – | inactive; negative | inactive; negative | – | inactive; negative | – | – | inactive; negative | – | mutagenic call (Test System: AMES SALMONELLA TYPHIMURIUM, Strain/Indicator: TA97, Metabolic Activation: HAMSTER, LIVER, S-9, AROCLOR 1254 (10%), Method: PREINCUBATION): inactive; negative; mutagenic call (Test System: AMES SALMONELLA TYPHIMURIUM, Strain/Indicator: TA97, Metabolic Activation: NONE, Method: PREINCUBATION): inactive; negative; mutagenic call (Test System: AMES SALMONELLA TYPHIMURIUM, Strain/Indicator: TA97, Metabolic Activation: RAT, LIVER, S-9, AROCLOR 1254 (10%), Method: PREINCUBATION): inactive; negative; mutagenic call (Test System: AMES SALMONELLA TYPHIMURIUM, Strain/Indicator: TA98, Metabolic Activation: HAMSTER, LIVER, S-9, AROCLOR 1254 (5 OR 10%), Method: PREINCUBATION): active; positive; mutagenic call (Test System: AMES SALMONELLA TYPHIMURIUM, Strain/Indicator: TA98, Metabolic Activation: NONE): inactive; negative; mutagenic call (Test System: AMES SALMONELLA TYPHIMURIUM, Strain/Indicator: TA98, Metabolic Activation: RAT, LIVER, S-9, AROCLOR 1254 (5, 10 OR 30%), Method: PREINCUBATION): inactive; negative; mutagenic call (Test System: AMES SALMONELLA TYPHIMURIUM, Strain/Indicator: TA98, Metabolic Activation: S-9): inactive; negative
Cc1cc(O)c2c(c1)C(=O)c1cc(O)c(O)c(O)c1C2=O | – | – | – | – | – | – | – | – | – | – | – | – | – | inactive; negative | –
c1ccc2cc(Nc3ccc(Nc4ccc5ccccc5c4)cc3)ccc2c1 | inactive; negative | – | inactive; negative | – | – | – | – | inactive; negative | – | – | – | inactive; negative | active; positive | – | mutagenic call (End Point: IN VITRO CHROMOSOMAL ABERRATIONS, Test System: CHINESE HAMSTER LUNG CELLS (CHL), Metabolic Activation: NONE): active; positive (structural changes); mutagenic call (End Point: IN VITRO CHROMOSOMAL ABERRATIONS, Test System: CHINESE HAMSTER OVARY CELLS (CHO), Metabolic Activation: NONE): inactive; negative; mutagenic call (End Point: IN VITRO CHROMOSOMAL ABERRATIONS, Test System: CHINESE HAMSTER OVARY CELLS (CHO), Metabolic Activation: RAT, LIVER, S-9, AROCLOR 1254): inactive; negative; mutagenic call (End Point: IN VITRO CHROMOSOMAL ABERRATIONS, Test System: CHL CELLS, Metabolic Activation: S-9): active; positive (structural changes); weak response; mutagenic call (End Point: IN VITRO CHROMOSOMAL ABERRATIONS, Test System: CHO CELLS, Metabolic Activation: S-9): active; positive (structural changes); mutagenic call (Test System: AMES SALMONELLA TYPHIMURIUM, Strain/Indicator: TA98, Metabolic Activation: RAT LIVER S-9, PHENOBARBITAL AND BETA-NAPHTHOFLAVONE, Method: PREINCUBATION): inactive; negative; mutagenic call (Test System: AMES SALMONELLA TYPHIMURIUM, Strain/Indicator: TA98, Metabolic Activation: RAT, LIVER, S-9, AROCLOR 1254 (30%), Method: PREINCUBATION): inactive; negative; mutagenic call (Test System: AMES SALMONELLA TYPHIMURIUM, Strain/Indicator: TA100, Metabolic Activation: HAMSTER, LIVER, S-9, AROCLOR 1254 (30%), Method: PREINCUBATION): inactive; negative; mutagenic call (Test System: AMES SALMONELLA TYPHIMURIUM, Strain/Indicator: TA100, Metabolic Activation: RAT LIVER S-9, PHENOBARBITAL AND BETA-NAPHTHOFLAVONE, Method: PREINCUBATION): inactive; negative; mutagenic call (Test System: AMES SALMONELLA TYPHIMURIUM, Strain/Indicator: TA100, Metabolic Activation: RAT, LIVER, S-9, AROCLOR 1254 (30%), Method: PREINCUBATION): inactive; negative; mutagenic call (Test System: AMES SALMONELLA TYPHIMURIUM, Strain/Indicator: TA1535, Metabolic Activation: RAT LIVER S-9, PHENOBARBITAL AND BETA-NAPHTHOFLAVONE, Method: PREINCUBATION): inactive; negative; mutagenic call (Test System: AMES SALMONELLA TYPHIMURIUM, Strain/Indicator: TA1537, Metabolic Activation: RAT LIVER S-9, PHENOBARBITAL AND BETA-NAPHTHOFLAVONE, Method: PREINCUBATION): inactive; negative; mutagenic call (Test System: AMES SALMONELLA TYPHIMURIUM, Strain/Indicator: TA1538, Metabolic Activation: NONE, Method: PREINCUBATION): inactive; negative; mutagenic call (Test System: AMES SALMONELLA TYPHIMURIUM, Strain/Indicator: TA1538, Metabolic Activation: RAT LIVER S-9, PHENOBARBITAL AND BETA-NAPHTHOFLAVONE, Method: PREINCUBATION): inactive; negative; mutagenic call (Test System: E.COLI, Strain/Indicator: WP2UVRA, Metabolic Activation: NONE, Method: PREINCUBATION): inactive; negative; mutagenic call (Test System: E.COLI, Strain/Indicator: WP2UVRA, Metabolic Activation: RAT LIVER S-9, PHENOBARBITAL AND BETA-NAPHTHOFLAVONE, Method: PREINCUBATION): inactive; negative
CNc1snc2ccccc12 | – | – | – | inactive; negative | – | inactive; negative | – | – | inactive; negative | – | inactive; negative | – | – | inactive; negative | mutagenic call (Test System: AMES SALMONELLA TYPHIMURIUM, Strain/Indicator: TA98, Metabolic Activation: NONE, Method: STANDARD PLATE): inactive; negative; mutagenic call (Test System: AMES SALMONELLA TYPHIMURIUM, Strain/Indicator: TA98, Metabolic Activation: S-9, Method: STANDARD PLATE): inactive; negative; mutagenic call (Test System: AMES SALMONELLA TYPHIMURIUM, Strain/Indicator: TA1537, Metabolic Activation: S-9, Method: STANDARD PLATE): inactive; negative
